From PMC9236245, “Glycyrrhiza uralensis promote the metabolism of toxic components of Aconitum carmichaeli by CYP3A and alleviate the development of chronic heart failure” (PLoS ONE, 2022) come the findings set out here.

Data set [1] in a line: Plasma concentration of AC, MA and HA in rats by LC-MS/MS. The note with it: for Plasma concentration: single animals. The class given is in vivo, rat. Also noted: Plasma concentration: unit not given here. As to the method:
12 SD rats were randomly divided into Aconitum and Glycyrrhizae combind with Aconitum group, 6 rats in each group, 2 mL / kg was given by gavage respectively.

The nature of data set [2]: Metabolic stability (t1/2, CLint) of AC, MA and HA in RLMs of pretreated rats.
The test system of another data set is CYP450. Description: Effect of CYP450 inhibitors on metabolism of AC, MA and HA in rat liver microsomes. The format is in vitro ADME. The settings on record: RLMs. The protocol:
1 mg / ML microsome 100 μL, PBS 75 μL and aconitine alkaloids 5 μL (AC, MA and HA: 1 mmol / L) were added. 20 μL NADPH (10 mmol / L) was added to start the reactionand, AC and HA were incubated for 90 min, MA were incubated for 120 min. The reaction was terminated by adding 200 μL glacial acetonitrile, 12 000 r / min at 4°C for 10 min, and 20 μL supernatant was used for HPLC.
Added microsome 100 μL, PBS 75 μL, aconitine alkaloids 5 μL, inhibitors (furatheophylline: 0.2 mmol / L, sulfabendazole: 0.4 mmol / L, quinidine: 0.1 mmol / L, ketoconazole: 0.04 mmol / L) 10 μL. The operation of HPLC was as above. The effect of CYP450 inhibitors on the metabolism of Aconitum alkaloids was calculated. The formula is as follows:
% inhibition = Peak area of X after adding inhibitor / Peak area of X before adding inhibitor × 100%, where X is metabolites of AC, MA and HA.

[3] abbreviates: RLMs of rats pretreated with Glycyrrhizae 0.33 g/kg.
Where [4] appears, read: RLMs of rats pretreated with Glycyrrhizae 1 g/kg.
[5] abbreviates: RLMs of rats pretreated with Glycyrrhizae 3 g/kg.
[6] abbreviates: RLMs of rats pretreated with Phenobarbital 0.08 g/kg.
The mark [7] stands for this setting: AC 90 min, ketoconazole stock 0.04 mmol/L.
Setting [8] is: MA 120 min, ketoconazole stock 0.04 mmol/L.

“And” between values parts separate entries of the source, which are not always exact repeats. Equal entries are not always repeated.

Consider `COC[C@]12CN(C)[C@@H]3[C@@H]4[C@H](OC)[C@H]1[C@@]3([C@@H](OC)C[C@H]2O)[C@@H]1C[C@@]2(O)[C@H](OC(=O)c3ccccc3)[C@@H]1[C@]4(OC(C)=O)[C@@H](O)[C@@H]2OC` [MA, mesaconitine], for which the “plasma concentration with compatibility of Glycyrrhizae and Aconitum vs Aconitum alone” value in data set [1] (2 mL/kg by gavage) is reported as “significantly lower”. In addition, the Plasma concentration was 0.104 and 0.259 and 0.0838 and 0.0908 and 0.0264 in data set [1] (Aconitum 2 mL/kg gavage, 10 min); 0.112 and 0.306 and 0.0799 and 0.129 and 0.0672 in data set [1] (Aconitum 2 mL/kg gavage, 20 min); 0.141 (2×) and 0.315 and 0.127 and 0.051 in data set [1] (Aconitum 2 mL/kg gavage, 30 min); 0.131 and 0.358 and 0.138 and 0.0993 and 0.054 in data set [1] (Aconitum 2 mL/kg gavage, 45 min); 0.209 and 0.452 and 0.123 and 0.0971 and 0.0527 in data set [1] (Aconitum 2 mL/kg gavage, 60 min); 0.212 and 0.258 and 0.0872 and 0.0822 and 0.0482 in data set [1] (Aconitum 2 mL/kg gavage, 90 min). For the same compound, the Plasma concentration is 0.151 and 0.279 and 0.0558 and 0.0592 and 0.0337 in data set [1] (Aconitum 2 mL/kg gavage, 120 min); 0.067 and 0.0621 and 0.0139 and 0.0294 and 0.00782 in data set [1] (Aconitum 2 mL/kg gavage, 240 min); 0.0249 and 0.0364 and 0 (2×) and 0.0208 in data set [1] (Aconitum 2 mL/kg gavage, 360 min); 0.00513 and 0 (4×) in data set [1] (Aconitum 2 mL/kg gavage, 480 min); 0.0924 and 0.061 and 0.0433 and 0.0157 and 0.04 in data set [1] (Glycyrrhizae + Aconitum 2 mL/kg gavage, 10 min); 0.0183 and 0.062 and 0.0517 and 0.0185 and 0.0482 in data set [1] (Glycyrrhizae + Aconitum 2 mL/kg gavage, 20 min). Besides, the Plasma concentration in data set [1] (Glycyrrhizae + Aconitum 2 mL/kg gavage, 30 min) was 0.0382 and 0.0796 and 0.0589 and 0.0258 and 0.0568; in data set [1] (Glycyrrhizae + Aconitum 2 mL/kg gavage, 45 min), 0.0446 and 0.0702 and 0.0601 and 0.0125 and 0.0651; in data set [1] (Glycyrrhizae + Aconitum 2 mL/kg gavage, 60 min) it was 0.0304 and 0.0692 and 0.0418 and 0.0207 and 0.0668; in data set [1] (Glycyrrhizae + Aconitum 2 mL/kg gavage, 90 min), 0.038 and 0.0469 and 0.0364 and 0.0228 and 0.0572; in data set [1] (Glycyrrhizae + Aconitum 2 mL/kg gavage, 120 min), 0.0276 and 0.0368 and 0.0358 and 0.0326 and 0.0683; in data set [1] (Glycyrrhizae + Aconitum 2 mL/kg gavage, 240 min), 0.00794 and 0.0109 and 0.0106 and 0.00771 and 0.0278. Moreover, the Plasma concentration in data set [1] (Glycyrrhizae + Aconitum 2 mL/kg gavage, 360 min) is 0.00417 and 0.00296 and 0 and 0.0025 and 0.0106; in data set [1] (Glycyrrhizae + Aconitum 2 mL/kg gavage, 480 min) it was 0. The CLint in data set [2] (RLMs of Control rats) was found to be 16.00±0.40 μL/min/mg protein; in data set [2] (setting [3]), 17.73±0.23 μL/min/mg protein; in data set [2] (setting [4]) it was 18.80±0.04 μL/min/mg protein; in data set [2] (setting [5]) it was 17.87±0.83 μL/min/mg protein; in data set [2] (setting [6]) it was 19.60±0.40 μL/min/mg protein. Besides, the t1/2 came to 2.8887 ± 0.0722 h in data set [2] (RLMs of Control rats); 2.6055 ± 0.0337 h in data set [2] (setting [3]); 2.4582 ± 0.0522 h in data set [2] (setting [4]); 2.5895 ± 0.118 h in data set [2] (setting [5]); 2.358 ± 0.048 h in data set [2] (setting [6]).

Turning to `Cc1nc2c([nH]1)c(=O)n(C)c(=O)n2Cc1ccco1` [furaphylline], in the data set on CYP450 (stock 0.2 mmol/L), the “effect on the metabolism of AC, MA and HA” value was “no significant effect”.

For `CC(=O)N1CCN(c2ccc(OCC3COC(Cn4ccnc4)(c4ccc(Cl)cc4Cl)O3)cc2)CC1` (stereo not shown) [ketoconazole], in the data set with CYP450 (setting [7]), the “production of AC metabolite A1, difference vs control” value was -0.2416 ± 0.0644; the “production of AC metabolite A2, difference vs control” value is listed as -0.4708 ± 0.02905; the “production of AC metabolite A3, difference vs control” value is recorded as -0.4643 ± 0.06743. Moreover, the “production of HA metabolite H2, difference vs control” value with CYP450 (HA 90 min) is -0.4161 ± 0.01634. In the data set with CYP450 (HA 90 min, ketoconazole stock 0.04 mmol/L), the “production of HA metabolite H1, difference vs control” value is reported as -0.4482 ± 0.05543. Further, in the data set on CYP450 (setting [8]), the “production of MA metabolite M1, difference vs control” value was -0.4085 ± 0.07279; the “production of MA metabolite M2, difference vs control” value is -0.3312 ± 0.06126; the “production of MA metabolite M3, difference vs control” value was -0.3905 ± 0.01824.
